The term IC50 denotes the point on the concentration scale where inhibition reaches its midpoint. Read a low IC50 as greater potency in that assay. A word on the melting point: it is the temperature, or range, at which the solid turns liquid. In general, % Inhibition refers to how much of the control response was suppressed. High values mean a response far below the control, low ones a response near the control.

Where two headings read alike, the source gives them in different places.

The values below come from patent US7169816B2, “4-bromo or 4-iodo phenylamino benzhydroxamic acid derivatives and their use as MEK inhibitors” (Warner-Lambert Company, priority 1997, dated 2007).

Data set [1] has as its system activation of MAP kinase in whole cells. The data set can be described thus: Whole cell MAP kinase assay (in vivo, cell culture). Type of data set: cell-based. The method, then:
To determine if compounds were able to block activation of MAP kinase in whole cells, the following protocol was used: Cells were plated in multi-well plates and grown to confluence. Cells were then serum-deprived overnight. Cells were exposed to the desired concentrations of compound or vehicle (DMSO) for 30 minutes, followed by addition of a growth factor, eg, PDGF (100 ng/mL). After a 5-minute treatment with the growth factor, cells were washed with PBS, then lysed in a buffer consisting of 70 mM NaCl, 10 mM HEPES (pH 7.4), 50 mM glycerol phosphate, and 1% Triton X-100. Lysates were clarified by centrifugation at 13,000×g for 10 minutes. Five micrograms of the resulting supernatants were incubated with 10 μg microtubule associated protein-2 (Map2) for 15 minutes at 30° C. in a final volume of 25 μL containing 50 mM Tris (pH 7.4), 10 mM MgCl2, 2 mM EGTA and 30 μM [γ-^32P]ATP. Reactions were terminated by addition of Laemmli sample buffer. Phosphorylated Map2 was resolved on 7.5% acrylamide gels and incorporated radioactivity determined by autoradiography and subsequent excision of the bands followed by scintillation counting.

A further data set concerns the target p45MEK (GST-MEK) (Homo sapiens, UniProt Q02750). The data set can be described thus: Cascade assay for inhibitors of the MAP kinase pathway (in vitro). Type of data set: biochemical. How it is done: Incorporation of ^32P into myelin basic protein (MBP) was assayed in the presence of a glutathione S-transferase fusion protein containing p44MAP kinase (GST-MAPK) and a glutathione S-transferase fusion protein containing p45MEK (GST-MEK). The assay solution contained 20 mM HEPES, pH 7.4, 10 mM MgCl2, 1 mM MnCl2, 1 mM EGTA, 50 μM [γ-^32P]ATP, 10 μg GST-MEK, 0.5 μg GST-MAPK and 40 μg MBP in a final volume of 100 μL. […] Compounds were assessed at 10 μM for ability to inhibit incorporation of ^32P.
To ascertain whether compounds were inhibiting GST-MEK or GST MAPK, two additional protocols were employed. In the first protocol, compounds were added to tubes containing GST-MEK, followed by addition of GST-MAPK, MBP and [γ-^32P]ATP. In the second protocol, compounds were added to tubes containing both GST-MEK and GST-MAPK, followed by MBP and [γ-^32P]ATP.

In data set [2] the test system is murine colon tumor, C26/clone 10. The experiment in a line: Murine colon tumor C26/clone 10 implanted subcutaneously in mice. In kind it is in vivo, Male CD2F1 mice. The conditions noted are these: for Change in Body Weight / Non-Specific Deaths: Days 1 through 14. How it is done:
Male CD2F1 mice (NCI: Charles River, Kingston) were implanted subcutaneously with tumor fragments (approximately 30 mg) in the region of the right axilla on Day 0. […] The vehicle for the test compound, and for control animals, was 10% EtOH/10% Cremophor-EL (Sigma)/80% H2O, pH 5.0. Tumor volumes were recorded three times per week by measuring the length and width of the individual tumors and calculating mass in milligrams according to the formula (a×b^2)/2, where a and b are the length and width of the tumor. Percent treated/control (T/C) was calculated based on the ratio of the median tumor volume of the treated tumors compared with the median tumor volume of control animals on specified measurement days.

As to `Cc1cc(I)ccc1Nc1c(C(=O)NO)ccc(F)c1F` [Example 84, 3,4-Difluoro-N-hydroxy-2-(4-iodo-2-methyl-phenylamino)-benzamide], the IC50 in data set [1] is 5 nM; on p45MEK (GST-MEK), 1 nM.

Turning to `Cc1cc(I)ccc1Nc1c(C(=O)NOCC2CCCCC2)cc(Br)c(F)c1F` [Example 100, 5-Bromo-N-cyclohexylmethoxy-3,4-difluoro-2-(4-iodo-2-methyl-phenylamino)-benzamide], the IC50 in data set [1] was over 1000 nM; at p45MEK (GST-MEK) it was 26 nM.

Take `O=C(NO)c1ccc([N+](=O)[O-])cc1Nc1ccc(I)cc1Cl` [Example 82, 2-(2-Chloro-4-iodo-phenylamino)-N-hydroxy-4-nitro-benzamide]: the concentration for half-maximal inhibition (IC50) was 40 nM in data set [1] and 3 nM against p45MEK (GST-MEK).

`Cc1cc(I)ccc1Nc1c(C(=O)NO)cc(Br)c(F)c1F` [Example 2, 5-Bromo-3,4-difluoro-N-hydroxy-2-(4-iodo-2-methyl-phenylamino)-benzamide] returned a melting point of 80 to 90 °C. The compound further came in with a 50% inhibitory concentration (IC50) against p45MEK (GST-MEK) of 3 nM.

With `Cc1cc(I)ccc1Nc1cc(F)ccc1C(=O)NO` [Example 1, 4-Fluoro-N-hydroxy-2-(4-iodo-2-methyl-phenylamino)-benzamide], the melting point was 61 to 75 °C. The same compound showed a half-inhibitory concentration (IC50) on p45MEK (GST-MEK) of 7 nM.

With “2-(4-bromo-2-methyl-phenylamino)-4-fluoro-N-hydroxy-benzamide [Example 3]”, the IC50 amounted to 3000 nM in data set [1] (cell culture) and 72 nM against p45MEK (GST-MEK).

Regarding “4-Fluoro-N-hydroxy-2-(4-cluoro-2-methyl-phenylamino)-benzamide [Example 11]”, the IC50 came out at 500 nM in data set [1] (cell culture) and 334 nM at p45MEK (GST-MEK).

As to `O=C(NO)c1cc(Br)c(F)c(F)c1Nc1ccc(I)cc1Cl` [Example 93, 5-Bromo-2-(2-chloro-4-iodo-phenylamino)-3,4-difluoro-N-hydroxy-benzamide], the concentration for half-maximal inhibition (IC50) worked out at 50 nM in data set [1] and 10 nM against p45MEK (GST-MEK).

Take `O=C(NOCC1CC1)c1ccc(F)c(F)c1Nc1ccc(I)cc1Cl` [Example 95, 3,4-Difluoro-2-(2-chloro-4-iodo-phenylamino)-N-cyclopropylmethoxy-benzamide]: the “% Inhibition” value in data set [2] (IP, 48 mg/kg/day, Day 15) is reported as 59%; in data set [2] (IP, 77 mg/kg/day, Day 15), 98%; in data set [2] (IP, 124 mg/kg/day, Day 15) it was 96%; in data set [2] (IP, 200 mg/kg/day, Day 15), 100%; in data set [2] (PO, 71 mg/kg/day, Day 17), 64%; in data set [2] (PO, 115 mg/kg/day, Day 17), 79%. For the same compound, the “% Inhibition” value came to 75% in data set [2] (PO, 186 mg/kg/day, Day 17) and 83% in data set [2] (PO, 300 mg/kg/day, Day 17). The “Change in Body Weight” value in data set [2] (IP, 48 mg/kg/day) is “+3 grams”; in data set [2] (IP, 77 mg/kg/day) it was “+2 grams”; in data set [2] (IP, 124 mg/kg/day), “+3 grams”; in data set [2] (IP, 200 mg/kg/day), “+2 grams”; in data set [2] (PO, 71 mg/kg/day) it was “+2 grams”; in data set [2] (PO, 115 mg/kg/day), “+2 grams”. The “Change in Body Weight” value in data set [2] (PO, 186 mg/kg/day) was “+2 grams”; in data set [2] (PO, 300 mg/kg/day), “+2 grams”. Moreover, the “Non-Specific Deaths” value is reported as 0/6 in data set [2] (IP, 48 mg/kg/day); 2/5 in data set [2] (IP, 77 mg/kg/day); 1/6 in data set [2] (IP, 124 mg/kg/day); 1/6 in data set [2] (IP, 200 mg/kg/day); 0/6 in data set [2] (PO, 71 mg/kg/day); 1/6 in data set [2] (PO, 115 mg/kg/day). Moreover, the “Non-Specific Deaths” value in data set [2] (PO, 186 mg/kg/day) is 0/6; in data set [2] (PO, 300 mg/kg/day), 0/6.

Turning to `Cc1cc(I)ccc1Nc1c(C(=O)NOCC2CCC2)cc(Br)c(F)c1F` [Example 102, 5-Bromo-N-cyclobutylmethoxy-3,4-difluoro-2-(4-iodo-2-methyl-phenylamino)-benzamide], the IC50 in data set [1] stood at 200 nM; against p45MEK (GST-MEK) it was 4 nM.

Take `O=C(NOCC1CCC1)c1ccc(F)c(F)c1Nc1ccc(I)cc1Cl` [Example 89, 3,4-Difluoro-2-(2-chloro-4-iodo-phenylamino)-N-cyclobutylmethoxy-benzamide]: the concentration for half-maximal inhibition (IC50) in data set [1] stood at 300 nM; against p45MEK (GST-MEK) it was 5 nM.

For “5-Bromo-N-cyclopropylmethoxy-3,4-difluoro-2-(4-iodo-2-methyl-phenylamino) [Example 58]”, the IC50 in data set [1] (cell culture) stood at 14 nM; on p45MEK (GST-MEK), 18 nM.

As to `Cc1cc(I)ccc1Nc1c(C(=O)NOCC(C)C)cc(Br)c(F)c1F` [Example 99, 5-Bromo-3,4-difluoro-2-(4-iodo-2-methyl-phenylamino)-N-isobutoxy-benzamide], the values for the IC50 (in data set [1]; at p45MEK (GST-MEK)) were 500 nM and 18 nM, respectively.

For the compound `Cc1cc(I)ccc1Nc1c(C(=O)NOCC2CCCC2)cc(Br)c(F)c1F` [Example 101, 5-Bromo-N-cyclopentylmethoxy-3,4-difluoro-2-(4-iodo-2-methyl-phenylamino)-benzamide], the IC50 in data set [1] is over 1000 nM; on p45MEK (GST-MEK), 8 nM.
